From ChEMBL document CHEMBL1201862, “PubChem BioAssay data set” (2004)
Active and inactive are the calls of the source.

Columns and labels:
[1] = microbe, parasite or virus in culture; type: functional; conditions: Mycobacterium tuberculosis
[2] = test system: Streptococcus sp. 'group A'; experiment: growth inhibition of control SK(-) GAS strain, dose response, counter-screen for streptokinase expression inhibitor project, luminescence, kanamycin, BacTiterGlo, confirmation (AID 1900); type: functional, organism-based
[3] = HepG2 cell cytotoxicity, dose response, cytotoxicity control for non-replicating M. tuberculosis project (AID 489018); type: functional; conditions: Mycobacterium tuberculosis
Nonstructural protein 1 = Nonstructural protein 1 (Influenza A virus, UniProt Q194T2); type: functional, Influenza A virus (A/California/07/2009(H1N1))
Streptococcus = experiment: Group A Streptococcus viability loss, dose response, counter-screen for streptokinase expression inhibitor project, luminescence, BacTiterGlo (AID 1915); type: functional, organism-based;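 note: potency for reduction of bacterial viability or growth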
[4] = THP-1 cell cytotoxicity, dose response, cytotoxicity control for non-replicating M. tuberculosis project (AID 489025); type: functional
[5] = Vero E6 cell cytotoxicity, dose response, cytotoxicity control for non-replicating M. tuberculosis project, secondary assay (AID 492998); type: functional, VeroE6; conditions: Vero C1008
cells = type: functional
[6] = biological target: T1, E3 ubiquitin-protein ligase XIAP (Homo sapiens, UniProt P98170); experiment: XIAP antagonists, biochemical, IAP family, fluorescence polarization (AID 1018); type: functional
T1 sequence (P98170 whole entry): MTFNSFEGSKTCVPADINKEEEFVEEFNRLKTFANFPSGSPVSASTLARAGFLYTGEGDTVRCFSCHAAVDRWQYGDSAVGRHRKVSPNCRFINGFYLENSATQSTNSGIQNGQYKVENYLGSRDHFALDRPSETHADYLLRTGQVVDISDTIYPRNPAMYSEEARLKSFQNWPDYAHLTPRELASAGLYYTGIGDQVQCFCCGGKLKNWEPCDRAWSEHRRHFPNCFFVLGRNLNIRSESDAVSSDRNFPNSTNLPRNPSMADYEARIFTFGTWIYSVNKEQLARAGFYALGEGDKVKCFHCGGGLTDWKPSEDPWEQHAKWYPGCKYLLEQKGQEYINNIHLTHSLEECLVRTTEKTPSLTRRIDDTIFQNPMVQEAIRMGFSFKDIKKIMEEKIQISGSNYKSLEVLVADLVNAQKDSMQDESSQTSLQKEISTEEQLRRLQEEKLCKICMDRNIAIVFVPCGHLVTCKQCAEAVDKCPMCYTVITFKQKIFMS

[7] = biological target: T1, E3 ubiquitin-protein ligase XIAP; experiment: Counter Screen using XIAP-Bir3 for Chemical Antagonists of Bir1/2 domains of IAP-family anti-apoptotic proteins. [Related pubchem assays (depositor defined):AID1018, AID1449, AID1514, AID1638, AID1749, AID1750, AID488957, AID488963]
HeLa = experiment: HeLa cell cytotoxicity, dose response, cytotoxicity control for MITF activator project, CellTiter-Glo luminescence, cherry-pick samples (AID 540259); type: functional, cell-based; conditions: Homo sapiens
[8] = biological target: Peroxisome proliferator-activated receptor gamma/Nuclear receptor coactivator 3 (Homo sapiens, UniProt P37231); experiment: (§1) TR-FRET dose response biochemical High Throughput Screening assay for agonists of the steroid receptor coactivator 3 (SRC-3) recruitment by the peroxisome proliferator-activated receptor gamma (PPAR gamma): non-selective agonists. [Related pubchem assays: 1301 (Confirmation screen.), 1048 (Primary screen.)]; type: functional
Sequence of Peroxisome proliferator-activated receptor gamma/Nuclear receptor coactivator 3 (P37231 whole entry): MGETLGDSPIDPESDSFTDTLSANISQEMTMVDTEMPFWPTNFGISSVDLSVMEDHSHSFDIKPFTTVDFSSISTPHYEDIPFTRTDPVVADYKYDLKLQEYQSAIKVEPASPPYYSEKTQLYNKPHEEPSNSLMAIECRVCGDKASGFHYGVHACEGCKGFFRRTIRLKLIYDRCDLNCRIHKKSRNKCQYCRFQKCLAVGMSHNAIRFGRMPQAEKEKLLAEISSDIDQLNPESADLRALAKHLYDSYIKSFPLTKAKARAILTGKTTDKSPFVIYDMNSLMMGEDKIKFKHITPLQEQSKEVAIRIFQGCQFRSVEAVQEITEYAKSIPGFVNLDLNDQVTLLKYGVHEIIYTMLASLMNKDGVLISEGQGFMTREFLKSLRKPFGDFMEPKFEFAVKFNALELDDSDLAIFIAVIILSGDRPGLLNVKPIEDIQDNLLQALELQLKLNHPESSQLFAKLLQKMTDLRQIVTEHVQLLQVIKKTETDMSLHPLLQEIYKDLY
Sequence of Peroxisome proliferator-activated receptor gamma/Nuclear receptor coactivator 3 (Q9Y6Q9 whole entry, further chain): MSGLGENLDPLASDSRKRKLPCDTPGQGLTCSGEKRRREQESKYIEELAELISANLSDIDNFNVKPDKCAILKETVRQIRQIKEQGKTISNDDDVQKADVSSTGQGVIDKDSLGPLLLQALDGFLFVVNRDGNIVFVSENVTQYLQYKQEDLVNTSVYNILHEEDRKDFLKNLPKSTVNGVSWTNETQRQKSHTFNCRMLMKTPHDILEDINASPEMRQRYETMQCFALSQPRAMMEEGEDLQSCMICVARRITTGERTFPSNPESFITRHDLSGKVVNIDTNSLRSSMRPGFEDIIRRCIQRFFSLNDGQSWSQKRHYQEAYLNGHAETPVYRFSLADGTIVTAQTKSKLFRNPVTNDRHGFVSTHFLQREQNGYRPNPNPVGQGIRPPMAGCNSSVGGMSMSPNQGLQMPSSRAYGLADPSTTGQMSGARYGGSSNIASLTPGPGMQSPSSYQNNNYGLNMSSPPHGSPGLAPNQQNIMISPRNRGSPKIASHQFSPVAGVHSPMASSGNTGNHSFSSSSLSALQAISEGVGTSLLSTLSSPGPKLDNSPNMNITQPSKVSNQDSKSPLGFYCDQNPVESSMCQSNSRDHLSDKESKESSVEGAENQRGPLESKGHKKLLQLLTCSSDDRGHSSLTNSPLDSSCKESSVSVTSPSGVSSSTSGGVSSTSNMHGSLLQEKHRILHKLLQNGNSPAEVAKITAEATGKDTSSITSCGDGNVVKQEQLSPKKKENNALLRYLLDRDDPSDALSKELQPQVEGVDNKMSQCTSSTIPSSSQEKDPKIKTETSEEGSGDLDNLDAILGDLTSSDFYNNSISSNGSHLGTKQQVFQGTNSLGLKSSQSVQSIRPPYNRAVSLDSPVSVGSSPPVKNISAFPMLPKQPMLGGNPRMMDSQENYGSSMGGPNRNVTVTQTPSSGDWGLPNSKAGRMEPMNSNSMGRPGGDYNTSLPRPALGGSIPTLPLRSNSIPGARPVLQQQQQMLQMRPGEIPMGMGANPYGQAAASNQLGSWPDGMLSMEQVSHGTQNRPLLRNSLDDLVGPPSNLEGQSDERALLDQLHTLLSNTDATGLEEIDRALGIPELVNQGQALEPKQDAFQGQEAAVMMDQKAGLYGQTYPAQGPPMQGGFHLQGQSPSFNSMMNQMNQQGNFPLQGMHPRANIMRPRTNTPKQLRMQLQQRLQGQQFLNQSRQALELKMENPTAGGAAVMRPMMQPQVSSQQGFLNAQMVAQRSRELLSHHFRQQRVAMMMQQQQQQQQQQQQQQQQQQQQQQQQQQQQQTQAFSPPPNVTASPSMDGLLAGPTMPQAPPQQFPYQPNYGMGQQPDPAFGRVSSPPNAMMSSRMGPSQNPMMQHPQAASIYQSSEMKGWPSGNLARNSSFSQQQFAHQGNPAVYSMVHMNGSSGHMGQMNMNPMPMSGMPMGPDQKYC

[9] = biological target: Peroxisome proliferator-activated receptor gamma/Nuclear receptor coactivator 1 (Homo sapiens, UniProt P37231); experiment: as §1, with “1 (SRC-1)” for “3 (SRC-3)”, “assays (depositor defined):AID1300, AID1808, AID504735, AID631]” for “assays: 1301 (Confirmation screen.), 1048 (Primary screen.)]”; type: protein assay
[10] = biological target: Peroxisome proliferator-activated receptor gamma/Nuclear receptor coactivator 2 (Homo sapiens, UniProt P37231); experiment: TR-FRET dose response biochemical High Throughput Screening assay for agonists of the steroid receptor coactivator 2 (SRC-2) recruitment by the peroxisome proliferator-activated receptor gamma (PPAR gamma): non-selective agonists. [Related pubchem assays: 1297, 1032 ]; type: functional
Sequence of Peroxisome proliferator-activated receptor gamma/Nuclear receptor coactivator 2 (P37231 whole entry): as the sequence (P37231 whole entry) above
Sequence of Peroxisome proliferator-activated receptor gamma/Nuclear receptor coactivator 2 (Q15596 whole entry, further chain): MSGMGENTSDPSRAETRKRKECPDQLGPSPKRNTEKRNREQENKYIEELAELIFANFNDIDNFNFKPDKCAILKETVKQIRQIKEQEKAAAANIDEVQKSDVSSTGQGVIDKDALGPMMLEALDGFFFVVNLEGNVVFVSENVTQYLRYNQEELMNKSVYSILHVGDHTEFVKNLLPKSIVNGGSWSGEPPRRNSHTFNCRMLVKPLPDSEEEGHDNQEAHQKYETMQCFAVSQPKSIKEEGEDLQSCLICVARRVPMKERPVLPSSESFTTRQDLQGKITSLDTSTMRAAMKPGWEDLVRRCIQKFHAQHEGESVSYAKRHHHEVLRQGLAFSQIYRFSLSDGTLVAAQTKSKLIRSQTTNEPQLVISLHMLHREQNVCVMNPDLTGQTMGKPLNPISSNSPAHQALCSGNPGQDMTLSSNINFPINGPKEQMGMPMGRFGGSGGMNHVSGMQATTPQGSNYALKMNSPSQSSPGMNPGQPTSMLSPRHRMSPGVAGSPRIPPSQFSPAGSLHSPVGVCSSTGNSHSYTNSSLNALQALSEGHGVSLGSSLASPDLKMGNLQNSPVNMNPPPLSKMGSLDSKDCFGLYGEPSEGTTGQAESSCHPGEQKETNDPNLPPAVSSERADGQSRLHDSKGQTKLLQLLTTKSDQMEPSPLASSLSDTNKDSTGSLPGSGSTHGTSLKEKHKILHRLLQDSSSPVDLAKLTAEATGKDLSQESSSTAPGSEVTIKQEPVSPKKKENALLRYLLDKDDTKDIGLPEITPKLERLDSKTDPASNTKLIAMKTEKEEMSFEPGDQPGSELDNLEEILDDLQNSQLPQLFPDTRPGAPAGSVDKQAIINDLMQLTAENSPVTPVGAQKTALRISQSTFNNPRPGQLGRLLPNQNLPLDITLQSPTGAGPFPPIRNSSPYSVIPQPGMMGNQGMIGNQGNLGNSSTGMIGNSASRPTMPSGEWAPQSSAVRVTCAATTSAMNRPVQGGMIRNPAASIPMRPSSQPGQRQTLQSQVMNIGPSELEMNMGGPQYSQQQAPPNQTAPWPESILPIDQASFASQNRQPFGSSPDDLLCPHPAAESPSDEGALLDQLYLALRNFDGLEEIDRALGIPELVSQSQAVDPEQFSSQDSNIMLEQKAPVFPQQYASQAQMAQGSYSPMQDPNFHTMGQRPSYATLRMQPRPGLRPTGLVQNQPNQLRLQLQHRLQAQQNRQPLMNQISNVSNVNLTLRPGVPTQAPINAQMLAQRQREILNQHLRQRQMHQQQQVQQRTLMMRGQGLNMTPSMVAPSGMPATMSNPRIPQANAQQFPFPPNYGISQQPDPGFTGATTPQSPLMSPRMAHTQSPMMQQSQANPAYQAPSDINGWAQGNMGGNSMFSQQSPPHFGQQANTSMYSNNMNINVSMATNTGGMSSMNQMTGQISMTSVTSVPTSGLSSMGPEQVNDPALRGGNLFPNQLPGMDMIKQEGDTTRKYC

Cytochrome P450 2D6 = Cytochrome P450 2D6 (Homo sapiens, UniProt P10635);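 note: CYP2D6 member of a cytochrome P450 panel assay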
[11] = A Cell Based Secondary Assay To Explore Cytotoxicity of Compounds that Sensitize Mycobacterium Tuberculosis to Beta-Lactam Antibiotics.; type: functional
[12] = biological target: Heat shock protein HSP 90-alpha (Homo sapiens, UniProt P07900); type: functional, organism-based
[13] = biological target: Lysosomal acid glucosylceramidase (Homo sapiens, UniProt P04062); experiment: Dose response cell-based high throughput screening assay to identify enhancers of beta-glucosidase activity. [Related pubchem assays: 784 ]; type: functional
CAAX prenyl protease 2 = CAAX prenyl protease 2 (Saccharomyces cerevisiae S288c, UniProt Q03530); type: biochemical
Sequence of CAAX prenyl protease 2 (Q03530 whole entry): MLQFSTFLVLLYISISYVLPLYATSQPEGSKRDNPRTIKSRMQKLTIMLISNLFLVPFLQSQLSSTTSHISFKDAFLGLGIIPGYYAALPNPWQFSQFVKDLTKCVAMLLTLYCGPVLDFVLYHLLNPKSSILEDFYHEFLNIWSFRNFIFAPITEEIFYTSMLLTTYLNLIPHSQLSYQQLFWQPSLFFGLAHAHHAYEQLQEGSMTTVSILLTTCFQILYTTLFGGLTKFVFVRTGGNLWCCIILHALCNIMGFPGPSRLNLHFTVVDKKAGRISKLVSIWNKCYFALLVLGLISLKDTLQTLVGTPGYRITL

Trypsin = Trypsin (Sus scrofa, UniProt P00761); experiment: porcine trypsin inhibitors, dose response, selectivity assay for Rce1 protease inhibitor project, biochemical, quenched peptide fluorescence, cherry-pick (AID 488789)
Prothrombin = Prothrombin (Bos taurus, UniProt P00735); experiment: thrombin inhibition, dose response, biochemical, fluorescence polarization, uHTS hits (AID 602369); type: functional
Streptokinase A = biological target: T2, Streptokinase A (Streptococcus pyogenes serotype M1, UniProt P10520); experiment: S. pyogenes streptokinase expression inhibitors, potency, dose response, plasminogen activation absorbance, OD405 (AID 1914); type: functional, Streptococcus pyogenes M1 GAS;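 note: secreted streptokinase activity via plasminogen activation per viability signal from cell pellet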
T2 sequence (P10520 whole entry): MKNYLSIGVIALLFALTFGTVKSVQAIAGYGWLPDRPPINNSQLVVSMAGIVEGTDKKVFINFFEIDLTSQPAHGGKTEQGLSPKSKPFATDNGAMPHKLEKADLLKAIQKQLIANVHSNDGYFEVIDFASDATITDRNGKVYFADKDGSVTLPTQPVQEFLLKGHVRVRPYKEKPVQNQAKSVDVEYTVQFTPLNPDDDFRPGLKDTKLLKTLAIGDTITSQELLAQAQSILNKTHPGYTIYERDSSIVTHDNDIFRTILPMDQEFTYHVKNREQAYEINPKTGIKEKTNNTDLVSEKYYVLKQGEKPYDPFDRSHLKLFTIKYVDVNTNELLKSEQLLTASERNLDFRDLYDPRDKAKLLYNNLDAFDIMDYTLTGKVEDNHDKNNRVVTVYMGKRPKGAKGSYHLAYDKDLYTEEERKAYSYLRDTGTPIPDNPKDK

INS1 = experiment: beta cell apoptosis inhibitors, cytokine rescue, dose response, luminescence, retest (AID 449756); type: functional, cell-based; conditions: Rattus norvegicus;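 note: cell death triggered by IL-1 beta plus TNF-alpha plus IFN-gamma mixture; protective hits raise ATP signal compared with cytokine alone wells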
[14] = C. albicans growth with fluconazole, confirmation, fluorescence, retest (AID 2467); type: functional, cell-based
[15] = NIH-3T3 fibroblast cytotoxicity, dose response, cytotoxicity control, cell-based, fluorescence, Alamar Blue, secondary assay (AID 2327); type: functional;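 note: NIH-3T3 mouse fibroblasts cultured with fluconazole at 8 µg/mL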
[16] = HIV-1 Env-mediated cell fusion inhibitors, dose response, CCR5-tropic Env (AID 2279); type: functional
[17] = biological target: 26S proteasome non-ATPase regulatory subunit 14 (Homo sapiens, UniProt O00487); experiment: inhibition of proteasome subunit RPN11 – biochemical, fluorescence polarization, uHTS hits, confirmation (AID 602368); type: functional
Sequence of 26S proteasome non-ATPase regulatory subunit 14 (O00487 whole entry): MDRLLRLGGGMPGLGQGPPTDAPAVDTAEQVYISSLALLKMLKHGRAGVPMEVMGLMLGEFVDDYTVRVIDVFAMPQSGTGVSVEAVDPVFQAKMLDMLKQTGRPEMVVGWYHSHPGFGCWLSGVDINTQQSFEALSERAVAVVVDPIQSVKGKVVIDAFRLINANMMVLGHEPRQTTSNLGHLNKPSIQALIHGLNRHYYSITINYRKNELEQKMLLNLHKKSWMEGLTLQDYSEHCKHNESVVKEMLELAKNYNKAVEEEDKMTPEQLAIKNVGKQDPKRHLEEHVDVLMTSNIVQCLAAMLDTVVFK

[18] = biological target: 72 kDa type IV collagenase (Homo sapiens, UniProt P08253); experiment: Dose Response validation of uHTS RPN11 inhibitor hits using a MMP-2 Fluorescence assay.; type: functional

## COCc1cc(O)nc(Nc2nc3ccccc3o2)n1
[1]
  CC50: 16 µM (active)
[2]
  EC50: 2.21 µM (active)
[3]
  CC50: 16.8 µM (active)
Nonstructural protein 1
  IC50: 10.8 µM (active)
Streptococcus
  EC50: 9.09 µM (active)
[4]
  CC50: 19.4 µM (active)
[5]
  CC50: 7.52 µM (active)
cells
  IC50: 1.85 µM (active)

## CC1(C)CC(=O)N(CC(=O)O)c2ccccc2S1(=O)=O
[6]
  IC50: > 100 µM (not active)
[7]
  IC50: > 100 µM (inactive)

## O=C(Nc1ccccc1)c1ccc(-c2ccccc2)s1
HeLa
  AC50: 48 µM (active)
[8]
  EC50: 35 µM (not active)
[9]
  EC50: 8.84 µM (active)
[10]
  EC50: 10.6 µM (not active)

## O=C1C=C(c2cccs2)CC(c2cccs2)C1n1cnc([N+](=O)[O-])c1 (stereo not given)
[8]
  EC50: > 79.4 µM (not active)
[9]
  EC50: 18.5 µM (inactive)
[10]
  EC50: 20.7 µM (not active)
Cytochrome P450 2D6
  AC50: 15.8 µM (inconclusive)

## OCCOCCn1c(C2CCCN2c2nc(-c3ccc(F)cc3)cs2)nc2cc(Cl)c(Cl)cc21 (stereo not given)
[11]
  CC50: 37.6 µM (active)
[12]
  AC50: 6.11 µM (active)

## Cc1ccc(N2C(=O)Nc3ccc(Br)cc3C2(O)C(=O)NCCCN(C)C)cc1C (stereo not given)
[13]
  EC50: > 50 µM (not active)

## Cc1cccc(/C=N/NC(=O)c2ccc(Br)cc2)c1
CAAX prenyl protease 2
  AC50: 7.44 µM (active)
Trypsin
  AC50: 7.5 µM (active)

## Cc1ccccc1Oc1nnc(-c2cccs2)c2ccccc12
[6]
  IC50: > 100 µM (not active)
[7]
  IC50: > 100 µM (inactive)

## COc1cc([N+](=O)[O-])cc(/C=N/NC(=O)c2cc(-c3ccccc3)nc3ccccc23)c1O
Prothrombin
  IC50: 75.1 µM (active)
Streptokinase A
  EC50: > 150 µM (not active)
INS1
  AC50: 3.63 µM (active)
[2]
  EC50: 5.37 µM (active)
[14]
  EC50: 2.08 µM (active)
Streptococcus
  EC50: 8.58 µM (active)
[15]
  EC50: 22.5 µM (inconclusive)
[16]
  IC50: 31.7 µM (active)
[17]
  IC50: 22.3 µM (active)
[18]
  IC50: 3.79 µM (active)
